From patent US8828908B2, “Herbicidally active bicyclic 1,3-dione compounds” (Syngenta Limited, priority 2007, dated 2014)

Assays:
Format in all cases: in vivo
Setaria faberi (SETFA) [1] = test: Example B pre-emergence herbicidal greenhouse test; details: 480 h, evaluated after 20 days, 100=total damage to plant, 0=no damage
Outline: (§1)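 Seeds are sown in soil-filled pots and sprayed either 1 day later (pre-emergence) or after 10 days of growth (post-emergence) with the active ingredient in an aqueous formulation containing an emulsifier, solvents and a surfactant. Injury is scored after 20 further days (pre) or 15 further days (post).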

[2] = tested on: Digitaria sanguinalis (DIGSA); test: Example B pre-emergence herbicidal greenhouse test; details: 480 h, evaluated after 20 days, 100=total damage to plant, 0=no damage
Outline: as §1

[3] = tested on: Echinochloa crus-galli (ECHCG); test: Example B pre-emergence herbicidal greenhouse test; details: 480 h, evaluated after 20 days, 100=total damage to plant, 0=no damage
Outline: as §1

Avena fatua (AVEFA) [4] = test: Example B pre-emergence herbicidal greenhouse test; details: 480 h, evaluated after 20 days, 100=total damage to plant, 0=no damage
Outline: as §1

Lolium perenne (LOLPE) [5] = test: Example B pre-emergence herbicidal greenhouse test; details: 480 h, evaluated after 20 days, 100=total damage to plant, 0=no damage
Outline: as §1

[6] = tested on: Alopecurus myosuroides (ALOMY); test: Example B pre-emergence herbicidal greenhouse test; details: 480 h, evaluated after 20 days, 100=total damage to plant, 0=no damage
Outline: as §1

[7] = tested on: Amaranthus retroflexus (AMARE); test: Example A post-emergence herbicidal glasshouse test; details: 312 h, evaluated after 13 days, 100=total damage to plant, 0=no damage
Outline: (§2)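 After sowing in standard soil, pots were cultivated 1 day (pre-emergence) or 8 days (post-emergence), then treated with an aqueous spray of the formulated active ingredient (acetone/water 50:50, 0.5% Tween 20). Phytotoxicity was assessed on a 0–100 scale at 13 days.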

Setaria faberi (SETFA) [8] = test: as above; details: 312 h, evaluated after 13 days, 100=total damage to plant, 0=no damage
Outline: as §2

[9] = tested on: Echinochloa crus-galli (ECHCG); test: as above; details: 312 h, evaluated after 13 days, 100=total damage to plant, 0=no damage
Outline: as §2

Avena fatua (AVEFA) [10] = test: as above; details: 312 h, evaluated after 13 days, 100=total damage to plant, 0=no damage
Outline: as §2

[11] = tested on: Alopecurus myosuroides (ALOMY); test: as above; details: 312 h, evaluated after 13 days, 100=total damage to plant, 0=no damage
Outline: as §2

[12] = tested on: Amaranthus retroflexus (AMARE); test: Example A pre-emergence herbicidal glasshouse test; details: 312 h, Rate 250 g/ha, evaluated after 13 days, 100=total damage to plant, 0=no damage to plant
Outline: as §2

Setaria faberi (SETFA) [13] = test: Example A pre-emergence herbicidal glasshouse test; details: 312 h, Rate 250 g/ha, evaluated after 13 days, 100=total damage to plant, 0=no damage to plant
Outline: as §2

[14] = tested on: Echinochloa crus-galli (ECHCG); test: Example A pre-emergence herbicidal glasshouse test; details: 312 h, Rate 250 g/ha, evaluated after 13 days, 100=total damage to plant, 0=no damage to plant
Outline: as §2

Avena fatua (AVEFA) [15] = test: Example A pre-emergence herbicidal glasshouse test; details: 312 h, Rate 250 g/ha, evaluated after 13 days, 100=total damage to plant, 0=no damage to plant
Outline: as §2

[16] = tested on: Alopecurus myosuroides (ALOMY); test: Example A pre-emergence herbicidal glasshouse test; details: 312 h, Rate 250 g/ha, evaluated after 13 days, 100=total damage to plant, 0=no damage to plant
Outline: as §2

Setaria faberi (SETFA) [17] = test: Example B post-emergence herbicidal greenhouse test; details: 360 h, evaluated after 15 days, 100=total damage to plant, 0=no damage
Outline: as §1

[18] = tested on: Digitaria sanguinalis (DIGSA); test: as above; details: 360 h, evaluated after 15 days, 100=total damage to plant, 0=no damage
Outline: as §1

[19] = tested on: Echinochloa crus-galli (ECHCG); test: as above; details: 360 h, evaluated after 15 days, 100=total damage to plant, 0=no damage
Outline: as §1

Avena fatua (AVEFA) [20] = test: as above; details: 360 h, evaluated after 15 days, 100=total damage to plant, 0=no damage
Outline: as §1

Lolium perenne (LOLPE) [21] = test: as above; details: 360 h, evaluated after 15 days, 100=total damage to plant, 0=no damage
Outline: as §1

[22] = tested on: Alopecurus myosuroides (ALOMY); test: as above; details: 360 h, evaluated after 15 days, 100=total damage to plant, 0=no damage
Outline: as §1

SMILES | pest or weed control at 250 g/ha (Setaria faberi (SETFA) [1]) | pest or weed control at 250 g/ha [2] | pest or weed control at 250 g/ha [3] | pest or weed control at 250 g/ha (Avena fatua (AVEFA) [4]) | pest or weed control at 250 g/ha (Lolium perenne (LOLPE) [5]) | pest or weed control at 250 g/ha [6] | pest or weed control at 250 g/ha [7] | pest or weed control at 250 g/ha (Setaria faberi (SETFA) [8]) | pest or weed control at 250 g/ha [9] | pest or weed control at 250 g/ha (Avena fatua (AVEFA) [10]) | pest or weed control at 250 g/ha [11] | pest or weed control at 250 g/ha [12] | pest or weed control at 250 g/ha (Setaria faberi (SETFA) [13]) | pest or weed control at 250 g/ha [14] | pest or weed control at 250 g/ha (Avena fatua (AVEFA) [15]) | pest or weed control at 250 g/ha [16] | pest or weed control at 125 g/ha (Setaria faberi (SETFA) [17]) | pest or weed control at 125 g/ha [18] | pest or weed control at 125 g/ha [19] | pest or weed control at 125 g/ha (Avena fatua (AVEFA) [20]) | further results
Cc1cc(-c2ccc(Cl)cc2)ccc1C1=C(O)[C@H]2CC[C@H](C2)C1=O [Compound T61, 3-(4′-chloro-3-methylbiphen-4-yl)bicyclo[3.2.1]octane-2,4-dione] | 100% | 100% | 90% | 40% | 90% | 100% | 20% | 100% | 100% | 60% | 100% | 0% | 90% | 80% | 30% | 40% | 90% | 100% | 80% | 30% | pest or weed control at 125 g/ha (Lolium perenne (LOLPE) [21]): 30%; pest or weed control at 125 g/ha [22]: 60%
CCc1ccc(-c2ccc(Cl)cc2Cl)cc1C1=C(OC(=O)OC)[C@H]2CC[C@H](C2)C1=O (single isomer, unassigned) [Compound P4, carbonic acid 3-(2′,4′-dichloro-4-ethylbiphen-3-yl)-4-oxo-bicyclo[3.2.1]oct-2-en-2-yl ester methyl ester] | 100% | 100% | 100% | 70% | 90% | 90% | 0% | 100% | 100% | 90% | 100% | 40% | 100% | 90% | 50% | 80% | 100% | 100% | 100% | 80% | pest or weed control at 125 g/ha (Lolium perenne (LOLPE) [21]): 90%; pest or weed control at 125 g/ha [22]: 100%
CCc1ccc(-c2ccc(Cl)c(C#N)c2)cc1C1=C(O)[C@H]2CC[C@H](C2)C1=O (single isomer, unassigned) [Compound T34] | 90% | 90% | 90% | 40% | 40% | 40% | 0% | 90% | 100% | 70% | 70% | 0% | 100% | 70% | 0% | 60% | 40% | 40% | 80% | 10% | pest or weed control at 125 g/ha (Lolium perenne (LOLPE) [21]): 0%; pest or weed control at 125 g/ha [22]: 0%
CCc1cc(-c2ccc(Cl)cc2)ccc1C1=C(OC(C)=O)[C@@H]2CC[C@@H](C2)C1=O [Compound P3] | 60% | 70% | 50% | 10% | 50% | 30% | 0% | 100% | 100% | 80% | 90% | 0% | 80% | 70% | 40% | 60% | 80% | 90% | 80% | 80% | pest or weed control at 125 g/ha (Lolium perenne (LOLPE) [21]): 80%; pest or weed control at 125 g/ha [22]: 90%
CCc1cc(-c2ccc(C)cc2)cc(CC)c1C1=C(O)[C@H]2CC[C@H](C2)C1=O [Compound T63] | 70% | 90% | 60% | 20% | 100% | 80% | 0% | 100% | 100% | 50% | 70% | 0% | 100% | 90% | 30% | 50% | 50% | 60% | 50% | 20% | pest or weed control at 125 g/ha (Lolium perenne (LOLPE) [21]): 10%; pest or weed control at 125 g/ha [22]: 0%
CCc1ccc(-c2ccc(Cl)cc2)cc1C1=C(O)[C@H]2C=C[C@H](CC2)C1=O (single isomer, unassigned) [Compound T55] | 10% | 30% | 50% | 30% | 60% | 10% | 0% | 100% | 100% | 20% | 50% | 0% | 90% | 70% | 0% | 0% | 100% | 100% | 100% | 70% | pest or weed control at 125 g/ha (Lolium perenne (LOLPE) [21]): 80%; pest or weed control at 125 g/ha [22]: 60%
CCc1ccc(-c2ccc(Cl)c(C(F)(F)F)c2)cc1C1=C(O)[C@H]2CC[C@H](C2)C1=O (single isomer, unassigned) [Compound T37] | 100% | 90% | 100% | 60% | 40% | 70% | 20% | 100% | 100% | 90% | 90% | 0% | 90% | 90% | 0% | 50% | 100% | 100% | 100% | 90% | pest or weed control at 125 g/ha (Lolium perenne (LOLPE) [21]): 30%; pest or weed control at 125 g/ha [22]: 70%
CCc1ccc(-c2ccc(F)c(Cl)c2)cc1C1=C(O)[C@H]2CC[C@H](C2)C1=O (single isomer, unassigned) [Compound T39] | 90% | 90% | 90% | 40% | 90% | 70% | 0% | 100% | 100% | 30% | 60% | 20% | 100% | 100% | 30% | 50% | 70% | 80% | 80% | 20% | pest or weed control at 125 g/ha (Lolium perenne (LOLPE) [21]): 10%; pest or weed control at 125 g/ha [22]: 0%
